Reference: ChEMBL document CHEMBL1201862, “PubChem BioAssay data set” (2004)
Active and inactive are the calls of the source.

Columns and labels:
Assay type in all cases: functional
[1] = target: Dual specificity protein kinase CLK2 (Homo sapiens, UniProt P49760)
[2] = target: Receptor tyrosine-protein kinase erbB-4 (Homo sapiens, UniProt Q15303);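 further: ERBB4 member of a kinome-wide kinase profiling panel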
[3] = target: MAP kinase-activated protein kinase 5 (Homo sapiens, UniProt Q8IW41);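 further: measured as one member of a kinome panel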
[4] = target: Interleukin-1 receptor-associated kinase 1 (Homo sapiens, UniProt P51617);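 further: IRAK1 tested as one member of a kinome panel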
[5] = target: Testis-specific serine/threonine-protein kinase 2 (Homo sapiens, UniProt Q96PF2);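 further: part of the Navigating the Kinome panel, target entry STK22B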
[6] = target: Serine/threonine-protein kinase pim-1 (Homo sapiens, UniProt P11309)
[7] = target: Death-associated protein kinase 3 (Homo sapiens, UniProt O43293);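 further: measured as one member of a kinome-wide profiling panel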
[8] = target: MAP kinase-interacting serine/threonine-protein kinase 2 (Homo sapiens, UniProt Q9HBH9)
[9] = target: Tyrosine-protein kinase FRK (Homo sapiens, UniProt P42685);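 further: FRK tested as one member of a kinome panel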
[10] = target: Receptor-type tyrosine-protein kinase FLT3 (Homo sapiens, UniProt P36888);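 further: FLT3 was tested as one member of a kinome-wide kinase panel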
[11] = target: Lymphokine-activated killer T-cell-originated protein kinase (Homo sapiens, UniProt Q96KB5);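 further: value comes from a kinase panel screen in which TOPK was one of the panel members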
[12] = target: MAP kinase-activated protein kinase 2 (Homo sapiens, UniProt P49137);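 further: measured as one member of a kinome-wide kinase panel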
[13] = target: MAP/microtubule affinity-regulating kinase 3 (Homo sapiens, UniProt P27448);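 further: MARK3 affinity measured as one member of a kinome panel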
[14] = target: Serine/threonine-protein kinase Chk2 (Homo sapiens, UniProt O96017);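 further: CHEK2 entry within a kinome-wide screening panel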
[15] = target: Tyrosine-protein kinase JAK3 (Homo sapiens, UniProt P52333)
[16] = target: Cyclin-dependent kinase 1 (Homo sapiens, UniProt P06493);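 further: Kinome-wide panel profiling, with the target listed as panel member CDC2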
[17] = target: Tyrosine-protein kinase BTK (Homo sapiens, UniProt Q06187)
[18] = target: Serine/threonine-protein kinase D3 (Homo sapiens, UniProt O94806);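 further: determined within a kinase panel screen, with PRKCN as the panel member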
[19] = target: Insulin receptor (Homo sapiens, UniProt P06213);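 further: insulin receptor kinase tested as one member of a kinome-wide kinase panel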
[20] = target: 3-phosphoinositide-dependent protein kinase 1 (Homo sapiens, UniProt O15530);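 further: value comes from the Navigating the Kinome panel, PDPK1 member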
[21] = target: Serine/threonine-protein kinase Nek2 (Homo sapiens, UniProt P51955)
[22] = target: Proto-oncogene tyrosine-protein kinase ROS (Homo sapiens, UniProt P08922);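 further: ROS1 tested as one member of a kinome-wide kinase panel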
Chain of Proto-oncogene tyrosine-protein kinase ROS (P08922 whole entry): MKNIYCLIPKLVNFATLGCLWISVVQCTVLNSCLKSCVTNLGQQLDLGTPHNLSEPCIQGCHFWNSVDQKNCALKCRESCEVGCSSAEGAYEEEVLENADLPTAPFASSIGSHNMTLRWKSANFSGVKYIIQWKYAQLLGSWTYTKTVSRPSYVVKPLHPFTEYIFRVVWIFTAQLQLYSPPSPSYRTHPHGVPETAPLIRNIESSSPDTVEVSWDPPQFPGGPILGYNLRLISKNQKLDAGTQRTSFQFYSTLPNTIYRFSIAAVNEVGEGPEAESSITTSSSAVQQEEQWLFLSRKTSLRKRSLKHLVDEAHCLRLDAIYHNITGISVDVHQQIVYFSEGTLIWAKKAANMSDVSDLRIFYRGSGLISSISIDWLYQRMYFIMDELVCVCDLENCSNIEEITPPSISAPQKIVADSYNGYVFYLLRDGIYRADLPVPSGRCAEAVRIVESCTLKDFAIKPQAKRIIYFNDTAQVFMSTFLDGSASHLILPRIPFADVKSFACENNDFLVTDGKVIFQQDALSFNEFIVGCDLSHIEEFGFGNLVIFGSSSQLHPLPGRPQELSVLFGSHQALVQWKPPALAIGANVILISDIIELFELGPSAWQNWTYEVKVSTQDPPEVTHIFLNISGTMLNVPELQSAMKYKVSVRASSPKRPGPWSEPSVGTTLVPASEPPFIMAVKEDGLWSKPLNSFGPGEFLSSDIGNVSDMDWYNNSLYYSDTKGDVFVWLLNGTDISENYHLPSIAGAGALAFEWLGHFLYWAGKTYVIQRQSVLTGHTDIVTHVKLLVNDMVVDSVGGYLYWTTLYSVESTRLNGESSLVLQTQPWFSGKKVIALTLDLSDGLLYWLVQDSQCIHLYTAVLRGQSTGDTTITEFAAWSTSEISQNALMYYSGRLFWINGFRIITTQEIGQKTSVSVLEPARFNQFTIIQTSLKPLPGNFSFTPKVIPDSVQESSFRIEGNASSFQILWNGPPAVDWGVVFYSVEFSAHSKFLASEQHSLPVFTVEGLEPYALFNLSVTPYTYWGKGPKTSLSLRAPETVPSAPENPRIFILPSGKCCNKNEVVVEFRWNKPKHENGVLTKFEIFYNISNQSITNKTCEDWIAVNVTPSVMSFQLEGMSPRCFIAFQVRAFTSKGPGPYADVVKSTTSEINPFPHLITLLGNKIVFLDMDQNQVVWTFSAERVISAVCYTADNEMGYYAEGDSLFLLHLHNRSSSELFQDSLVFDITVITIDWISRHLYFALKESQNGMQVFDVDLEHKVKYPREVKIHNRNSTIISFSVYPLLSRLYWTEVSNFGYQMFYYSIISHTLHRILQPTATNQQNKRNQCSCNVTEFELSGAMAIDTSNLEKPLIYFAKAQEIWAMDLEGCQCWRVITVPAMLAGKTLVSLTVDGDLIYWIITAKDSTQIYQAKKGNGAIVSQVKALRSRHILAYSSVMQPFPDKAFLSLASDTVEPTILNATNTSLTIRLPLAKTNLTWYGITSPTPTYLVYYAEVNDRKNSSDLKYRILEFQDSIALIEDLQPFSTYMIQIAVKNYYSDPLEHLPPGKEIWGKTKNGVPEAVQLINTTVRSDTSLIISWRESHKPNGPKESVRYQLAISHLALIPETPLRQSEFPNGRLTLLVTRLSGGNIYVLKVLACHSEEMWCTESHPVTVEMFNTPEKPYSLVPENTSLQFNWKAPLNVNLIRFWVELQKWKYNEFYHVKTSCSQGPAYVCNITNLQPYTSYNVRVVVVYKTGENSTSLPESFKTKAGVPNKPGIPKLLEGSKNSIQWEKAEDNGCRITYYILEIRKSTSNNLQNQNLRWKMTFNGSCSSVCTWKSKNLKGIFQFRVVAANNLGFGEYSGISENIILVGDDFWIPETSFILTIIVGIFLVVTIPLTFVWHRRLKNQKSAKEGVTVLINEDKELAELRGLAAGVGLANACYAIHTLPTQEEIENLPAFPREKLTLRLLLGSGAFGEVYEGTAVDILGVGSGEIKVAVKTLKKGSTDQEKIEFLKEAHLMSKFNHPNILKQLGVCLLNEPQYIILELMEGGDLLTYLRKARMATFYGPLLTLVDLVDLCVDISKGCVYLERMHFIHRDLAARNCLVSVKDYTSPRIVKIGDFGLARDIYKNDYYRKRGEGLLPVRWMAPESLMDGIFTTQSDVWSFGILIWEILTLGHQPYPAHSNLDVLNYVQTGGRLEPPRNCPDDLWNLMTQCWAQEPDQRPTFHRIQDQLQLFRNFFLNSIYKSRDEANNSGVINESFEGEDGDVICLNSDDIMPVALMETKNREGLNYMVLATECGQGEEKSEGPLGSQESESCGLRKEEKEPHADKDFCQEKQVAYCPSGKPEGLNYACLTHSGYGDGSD

[23] = target: Ribosomal protein S6 kinase beta-1 (Homo sapiens, UniProt P23443);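 further: measured as one member of a kinome-wide profiling panel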
[24] = target: Homeodomain-interacting protein kinase 4 (Homo sapiens, UniProt Q8NE63)
[25] = target: Cyclin-dependent kinase 5 (Homo sapiens, UniProt Q00535);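 further: CDK5 measured as one member of a kinase profiling panel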
[26] = target: Serine/threonine-protein kinase Chk1 (Homo sapiens, UniProt O14757);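 further: measured as one member of a kinome-wide kinase profiling panel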
[27] = target: Dual specificity tyrosine-phosphorylation-regulated kinase 4 (Homo sapiens, UniProt Q9NR20)
[28] = target: Cell division cycle 7-related protein kinase (Homo sapiens, UniProt O00311);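 further: value obtained from a kinome-wide kinase panel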
[29] = target: Mitogen-activated protein kinase 9 (Homo sapiens, UniProt P45984);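 further: value from a kinome panel profiling assay, MAPK9 panel entry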
[30] = target: Casein kinase I isoform gamma-1 (Homo sapiens, UniProt Q9HCP0);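 further: measured as the CSNK1G1 member of a kinome profiling panel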
Chain of Casein kinase I isoform gamma-1 (Q9HCP0 whole entry, canonical isoform): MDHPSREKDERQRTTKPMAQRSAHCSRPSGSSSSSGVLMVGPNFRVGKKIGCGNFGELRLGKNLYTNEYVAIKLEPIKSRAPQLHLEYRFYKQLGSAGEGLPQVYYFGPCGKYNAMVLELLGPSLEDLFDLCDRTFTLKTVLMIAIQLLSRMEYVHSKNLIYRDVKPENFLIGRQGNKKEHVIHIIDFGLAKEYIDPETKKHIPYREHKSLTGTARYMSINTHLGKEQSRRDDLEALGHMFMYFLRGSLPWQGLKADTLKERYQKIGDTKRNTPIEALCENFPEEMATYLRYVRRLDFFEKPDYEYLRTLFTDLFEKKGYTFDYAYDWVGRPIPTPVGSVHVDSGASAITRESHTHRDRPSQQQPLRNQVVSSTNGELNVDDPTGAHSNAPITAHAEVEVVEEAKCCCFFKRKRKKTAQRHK

[31] = target: Megakaryocyte-associated tyrosine-protein kinase (Homo sapiens, UniProt P42679);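 further: affinity measured as one member of a kinase panel (Navigating the Kinome) against MATK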
[32] = target: Vascular endothelial growth factor receptor 2 (Homo sapiens, UniProt P35968)
[33] = target: STE20-like serine/threonine-protein kinase (Homo sapiens, UniProt Q9H2G2)
[34] = target: Serine/threonine-protein kinase BRSK1 (Homo sapiens, UniProt Q8TDC3);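 further: measured within a kinome-wide kinase panel, with the target listed as KIAA1811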
[35] = target: Calcium/calmodulin-dependent protein kinase type II subunit gamma (Homo sapiens, UniProt Q13555)
[36] = target: Vascular endothelial growth factor receptor 1 (Homo sapiens, UniProt P17948);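 further: measured within a kinome-wide profiling panel, FLT1 as the panel member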
Chain of Vascular endothelial growth factor receptor 1 (P17948 whole entry): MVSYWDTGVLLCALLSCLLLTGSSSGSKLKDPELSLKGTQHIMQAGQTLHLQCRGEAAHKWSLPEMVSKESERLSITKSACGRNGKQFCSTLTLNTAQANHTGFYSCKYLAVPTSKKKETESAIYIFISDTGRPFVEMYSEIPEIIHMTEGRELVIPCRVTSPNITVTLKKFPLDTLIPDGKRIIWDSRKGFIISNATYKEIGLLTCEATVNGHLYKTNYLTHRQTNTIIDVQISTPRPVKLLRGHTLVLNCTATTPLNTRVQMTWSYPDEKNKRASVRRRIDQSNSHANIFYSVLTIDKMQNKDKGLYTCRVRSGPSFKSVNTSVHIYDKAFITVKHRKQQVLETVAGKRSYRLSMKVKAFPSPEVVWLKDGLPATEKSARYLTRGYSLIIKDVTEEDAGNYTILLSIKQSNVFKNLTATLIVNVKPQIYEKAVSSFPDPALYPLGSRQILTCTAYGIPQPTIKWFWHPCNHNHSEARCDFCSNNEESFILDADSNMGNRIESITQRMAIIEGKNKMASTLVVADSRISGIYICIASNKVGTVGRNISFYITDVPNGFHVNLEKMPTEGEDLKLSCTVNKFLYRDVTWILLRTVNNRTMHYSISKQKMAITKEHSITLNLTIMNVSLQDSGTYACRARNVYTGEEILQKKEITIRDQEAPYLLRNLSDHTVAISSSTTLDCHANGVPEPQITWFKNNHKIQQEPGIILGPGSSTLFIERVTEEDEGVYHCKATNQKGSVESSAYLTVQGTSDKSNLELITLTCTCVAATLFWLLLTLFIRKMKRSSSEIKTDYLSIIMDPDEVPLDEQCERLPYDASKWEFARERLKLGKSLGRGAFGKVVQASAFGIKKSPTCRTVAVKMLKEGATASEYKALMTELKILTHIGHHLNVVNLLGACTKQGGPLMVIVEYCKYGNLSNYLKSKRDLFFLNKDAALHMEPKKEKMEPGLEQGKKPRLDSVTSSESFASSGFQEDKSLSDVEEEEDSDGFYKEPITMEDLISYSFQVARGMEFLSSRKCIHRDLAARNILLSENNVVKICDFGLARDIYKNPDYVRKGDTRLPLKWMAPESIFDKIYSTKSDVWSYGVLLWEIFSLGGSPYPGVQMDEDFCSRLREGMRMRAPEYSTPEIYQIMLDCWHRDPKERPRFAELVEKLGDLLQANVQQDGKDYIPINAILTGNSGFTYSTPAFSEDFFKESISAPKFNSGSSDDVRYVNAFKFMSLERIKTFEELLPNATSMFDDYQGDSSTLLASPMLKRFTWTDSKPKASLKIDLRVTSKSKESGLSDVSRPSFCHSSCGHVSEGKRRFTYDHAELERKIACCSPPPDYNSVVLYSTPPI

[37] = target: Casein kinase II subunit alpha (Homo sapiens, UniProt P68400)
[38] = target: BDNF/NT-3 growth factors receptor (Homo sapiens, UniProt Q16620);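 further: NTRK2 measured as one member of a broad kinome-wide kinase profiling panel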
[39] = target: Tyrosine-protein kinase JAK2 (Homo sapiens, UniProt O60674);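 further: JAK2 tested as one member of a kinase panel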
[40] = target: ALK tyrosine kinase receptor (Homo sapiens, UniProt Q9UM73);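 further: ALK tested as one member of a kinase panel screen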
[41] = target: Maternal embryonic leucine zipper kinase (Homo sapiens, UniProt Q14680)
[42] = target: MAP kinase-activated protein kinase 3 (Homo sapiens, UniProt Q16644);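 further: value comes from a kinome-wide profiling panel in which MAPKAPK3 is one of the panel members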
[43] = target: Serine/threonine-protein kinase PLK4 (Homo sapiens, UniProt O00444);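 further: PLK4 measured as one member of a kinome-wide kinase profiling panel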
Chain of Serine/threonine-protein kinase PLK4 (O00444 whole entry): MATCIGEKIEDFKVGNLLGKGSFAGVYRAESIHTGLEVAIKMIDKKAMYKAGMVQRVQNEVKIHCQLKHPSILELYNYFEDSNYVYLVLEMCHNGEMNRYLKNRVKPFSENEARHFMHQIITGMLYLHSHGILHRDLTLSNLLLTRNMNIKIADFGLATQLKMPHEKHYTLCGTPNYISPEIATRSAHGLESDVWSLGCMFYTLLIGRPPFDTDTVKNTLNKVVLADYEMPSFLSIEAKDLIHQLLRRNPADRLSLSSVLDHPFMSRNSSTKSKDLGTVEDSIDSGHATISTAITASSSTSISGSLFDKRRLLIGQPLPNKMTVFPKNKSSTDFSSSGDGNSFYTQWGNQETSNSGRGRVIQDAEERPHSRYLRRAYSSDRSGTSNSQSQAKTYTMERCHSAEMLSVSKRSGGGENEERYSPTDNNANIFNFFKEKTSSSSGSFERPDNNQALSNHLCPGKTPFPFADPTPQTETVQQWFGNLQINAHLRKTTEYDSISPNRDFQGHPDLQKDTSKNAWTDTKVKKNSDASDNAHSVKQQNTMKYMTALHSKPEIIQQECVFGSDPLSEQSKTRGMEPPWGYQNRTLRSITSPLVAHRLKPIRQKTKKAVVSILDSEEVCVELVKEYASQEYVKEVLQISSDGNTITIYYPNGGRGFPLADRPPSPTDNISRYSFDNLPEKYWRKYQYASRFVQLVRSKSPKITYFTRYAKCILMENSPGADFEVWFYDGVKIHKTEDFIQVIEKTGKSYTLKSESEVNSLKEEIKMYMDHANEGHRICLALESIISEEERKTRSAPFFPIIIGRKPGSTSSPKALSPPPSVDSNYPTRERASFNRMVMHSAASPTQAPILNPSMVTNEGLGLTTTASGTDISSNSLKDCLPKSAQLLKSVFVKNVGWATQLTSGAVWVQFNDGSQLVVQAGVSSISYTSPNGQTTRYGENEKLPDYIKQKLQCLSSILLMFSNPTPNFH

[44] = target: Glycogen synthase kinase-3 beta (Homo sapiens, UniProt P49841);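 further: value comes from a broad kinome profiling panel, with GSK3B as the panel member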
[45] = target: Serine/threonine-protein kinase DCLK1 (Homo sapiens, UniProt O15075);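 further: affinity for DCLK1 (listed as DCAMKL1) measured as one member of a kinome-wide kinase profiling panel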
[46] = target: Mitogen-activated protein kinase kinase kinase 20 (Homo sapiens, UniProt Q9NYL2)

NC1CCCCC1Nc1nccc(-c2c[nH]c3ncccc23)n1 (stereo unspecified)
Ki [1]: 39.8 nM (active)
Ki [2]: > 3980 nM (inactive)
Ki [3]: > 1580 nM (inactive)
Ki [4]: 39.8 nM (active)
Ki [5]: 100 nM (active)
Ki [6]: 501 nM (active)
Ki [7]: 39.8 nM (active)
Ki [8]: 126 nM (active)
Ki [9]: 1580 nM (active)
Ki [10]: 316 nM (active)
Ki [11]: 631 nM (active)
Ki [12]: > 7940 nM (inactive)
Ki [13]: 158 nM (active)
Ki [14]: > 1580 nM (inactive)
Ki [15]: 1260 nM (active)
Ki [16]: 158 nM (active)
Ki [17]: > 1260 nM (inactive)
Ki [18]: 79.4 nM (active)
Ki [19]: > 5010 nM (inactive)
Ki [20]: 316 nM (active)
Ki [21]: > 10000 nM (inactive)
Ki [22]: > 2000 nM (inactive)
Ki [23]: 501 nM (active)
Ki [24]: 1580 nM (active)
Ki [25]: 50.1 nM (active)
Ki [26]: 1260 nM (active)
Ki [27]: 158 nM (active)
Ki [28]: 10 nM (active)
Ki [29]: > 3980 nM (inactive)
Ki [30]: 316 nM (active)
Ki [31]: > 2000 nM (inactive)
Ki [32]: 7940 nM (active)
Ki [33]: 316 nM (active)
Ki [34]: 5010 nM (active)
Ki [35]: 79.4 nM (active)
Ki [36]: > 398 nM (inactive)
Ki [37]: > 6310 nM (inactive)
Ki [38]: > 5010 nM (inactive)
Ki [39]: 794 nM (active)
Ki [40]: > 1260 nM (inactive)
Ki [41]: 100 nM (active)
Ki [42]: > 10000 nM (inactive)
Ki [43]: 3160 nM (active)
Ki [44]: 200 nM (active)
Ki [45]: 3160 nM (active)
Ki [46]: > 7940 nM (inactive)
